Patent US20090124634A1, “Novel dipodazine compounds and applications” (Viogard AB, priority 2005, published 2009)
Marks after values point to notes of the source that are not given here.

Experiments:
[1] = tested on: cyprids larvae of B. improvisus; details: B. improvisus cypris larvae, from ref [27], cited from earlier work; for EC50: read-out: EC50, inhibition of settlement of cypris larvae
M. edulis = test: Field experiment, paint-coated panels in sea water: recruitment of M. edulis; assay type: in vivo, Mytilus edulis
From the text: (§1) The effects of barettin and 8,9-Dihydrobarettin on B. improvisus recruitment was studied, by formulating different paints with different concentrations of the active substances.
(§2) The paints were commercially available paints and the four different paints are listed below:
Also, the effects of barettin and 8,9-dihydrobarettin on M. edulis recruitment were studied. When analyzing the data on the recruitment of M. edulis in the present field experiment, in a 3-factor analysis of variance with substance, paint and concentration as fixed factors, there was a significant interaction between the factors substance and paint. The main contribution to the significant interaction between the factors substance and paint is the result of barettin in combination with the SPF paint. […] However, the SNK-test could not reveal any significant differences between data.

B. improvisus = test: Field experiment, paint-coated panels in sea water: recruitment/settlement of B. improvisus; assay type: in vivo, Balanus improvisus; details: for Reduction of recruitment (%): B. improvisus; for reduction of settlement of B. Improvisus: panels eight weeks in sea water, 0.2-1.5 m depth (FIG. 1)
From the text: as §1, §2
One compound according to the present invention, benzo[g]dipodazine, which is the at present preferred compound, was formulated in a commercially available paint (SPF, from Lotréc, Lidingö, Sweden). The concentration of benzo[g]dipodazine in the paint was 0.1% and 0.01% based on the weight of the paint.
The paint was coated on panels in the same way as described above in Example 1 (comparative example). A control panel was coated with the same paint without benzo[g]dipodazine. All panels were immersed in sea water at a depth of 0.2-1.5 m, and maintained in the water for eight weeks.

[2] = tested on: cyprids larvae of B. improvisus; test: Larval settlement assay (barnacle cyprids in dishes), incl. reversibility test; assay type: in vivo, Balanus improvisus
Experimental: Barnacle cyprids larvae of B. improvisus was reared in the laboratory as described in [2]. The settlement propensity and mortality of barnacle cyprids were used to evaluate the bioactive effect of barettin and analogues. Stock solutions of all compounds shown in FIG. 4 were prepared by dissolving the compounds in dimethylsulfoxide (DMSO). The stock solutions were further diluted in filtered seawater (FSW, Millipore 0.2 μm) to yield the desired concentrations of 1×10^−4, 1×10^−3 and 1×10^−2 mg ml^−1. The settlement assays were performed using Petri dishes of untreated polystyrene (Nunc no 240045, Ø 48 mm) containing 10 ml of FSW to which 20±5 cyprids were added. Cyprids were used on their first or second day after moulting. Each treatment with a specific analogue was replicated 4 times and dishes with FSW only or FSW containing DMSO (0.1%) served as controls. Dishes were maintained for 3-4 days at room temperature (21±2° C.) in the prevailing light:dark cycle of 9:15 h. The effects of the different analogues, classified as either neutral, stimulatory or inhibitory, on the cyprids, were determined by examining the dishes under a stereo microscope and checking for 1) attached and metamorphosed individuals, 2) non-metamorphosed, alive, non-attached cyprids and 3) dead cyprids. Each substance was tested at least in two independent experimental series. […]

[3] = FabiEco paint, 0.01% in paint, listed as 8,9-dihydro-barettin
[4] = FabiEco paint, 0.1% in paint, listed as 8,9-dihydro-barettin
[5] = SPF paint, 0.01% in paint, 8-week period
[6] = SPF paint, 0.1% in paint, 8-week period
[7] = SPF paint, 0.01% in paint, vs control panels
[8] = SPF paint, 0.1% in paint, vs control panels

Row | SMILES | effect on larval mortality [1] | EC50 [1] | Reduction of recruitment (%) (M. edulis; FabiEco paint, 0.01% in paint) | Reduction of recruitment (%) (M. edulis; FabiEco paint, 0.1% in paint) | Reduction of recruitment (%) (M. edulis; H2000 paint, 0.01% in paint) | Reduction of recruitment (%) (M. edulis; H2000 paint, 0.1% in paint) | Reduction of recruitment (%) (M. edulis; [5]) | Reduction of recruitment (%) (M. edulis; [6]) | Reduction of recruitment (%) (M. edulis; TF paint, 0.01% in paint) | Reduction of recruitment (%) (M. edulis; TF paint, 0.1% in paint) | Reduction of recruitment (%) (B. improvisus; FabiEco paint, 0.01% in paint) | Reduction of recruitment (%) (B. improvisus; FabiEco paint, 0.1% in paint) | Reduction of recruitment (%) (B. improvisus; H2000 paint, 0.01% in paint) | Reduction of recruitment (%) (B. improvisus; H2000 paint, 0.1% in paint) | Reduction of recruitment (%) (B. improvisus; [7]) | Reduction of recruitment (%) (B. improvisus; [8]) | Reduction of recruitment (%) (B. improvisus; TF paint, 0.01% in paint) | Reduction of recruitment (%) (B. improvisus; TF paint, 0.1% in paint) | other results
1 | N=C(N)NCCC[C@@H]1NC(=O)[C@H](Cc2c[nH]c3cc(Br)ccc23)NC1=O [8,9-dihydrobarettin] | none of the compounds displayed any significant effect on larval mortality | 7.9 µM | 50% | 67% | 53% | 39% | 52% | 72% | −28% | 3.8% | 59% | 69% | 46% | 20% | 43% | 61% | −10% | −1% | Reduction of recruitment (%) (M. edulis; [3]): 50* %; Reduction of recruitment (%) (M. edulis; [4]): 67** %; Reduction of recruitment (%) (M. edulis; H2000 paint, 0.01% in paint, listed as 8,9-dihydro-barettin): 53* %; Reduction of recruitment (%) (M. edulis; SPF paint, 0.1% in paint, 8-week period, listed as 8,9-dihydro-barettin): 72** %; Reduction of recruitment (%) (B. improvisus; [3]): 59* %; Reduction of recruitment (%) (B. improvisus; [4]): 69*** %; Reduction of recruitment (%) (B. improvisus; SPF paint, 0.1% in paint, vs control panels, listed as 8,9-dihydro-barettin): 61** %
2 | N=C(N)NCCC[C@@H]1NC(=O)/C(=C/c2c[nH]c3cc(Br)ccc23)NC1=O [barettin] | none of the compounds displayed any significant effect on larval mortality | 0.9 µM | 51% | 47% | 26% | 12% | 83% | 81% | 51* % | 6% | 45% | 49% | 28% | 23% | 67% | 89% | 25% | 17% | Reduction of recruitment (%) (M. edulis; TF paint, 0.01% in paint, listed as Barettin): 51%
3 | O=C1CNC(=O)/C(=C/c2c[nH]c3c2ccc2ccccc23)N1 [benzo[g]dipodazine] | – | – | – | – | – | – | – | – | – | – | – | – | – | – | – | – | – | – | reduction of settlement of B. Improvisus (B. improvisus; SPF paint, 0.01% by weight of paint): about 73%; reduction of settlement of B. Improvisus (B. improvisus; SPF paint, 0.1% by weight of paint): about 85%; inhibition of settlement of cyprids ([2]; 34 μM in dishes (FIG. 2A)): complete inhibition; reversibility: ability of cyprids to settle again in fresh seawater after exposure ([2]; totally inhibited cyprids transferred to fresh sea water (FSW) (FIG. 2B)): regained this capability when transferred to fresh sea water
4 | O=C1CNC(=O)C(=Cc2cc3ccccc3s2)N1 [compound 12, 3-[1-benzothiophen-2-yl-methylidene]-piperazine-2,5-dione] | – | – | – | – | – | – | – | – | – | – | – | – | – | – | – | – | – | – | melting point: 258 °C
